In US5726177A, “Indole-derived arylpiperazines as ligands for 5HT1 -like, 5HT1B and 5HT1D receptors” (Pierre Fabre Medicament, priority 1993, dated 1998):
Counter-ions that a name gives are not always drawn. Like-named read-outs stand apart in the source and are kept apart here.

Legend:
human 5HT1Db receptor [1] = target: T1, human 5HT1Db receptor (Homo sapiens, UniProt P28222); test: Binding to cloned human 5HT1Db receptor; conditions: human cloned receptor; [3H] ligand 2 nM; read-out: Ki 5HT1Db
Description: (§1) Human 5HT1Da and 5HT1Db receptors were cloned according to the sequences published by M. Hamblin and M. Metcalf, Mol. Pharmacol., 40, 143 (1991) and Weinshenk et al., Proc. Natl. Acad. Sci., 89, 3630 (1992).
(§2) The transient transfection and the stable transfection of the genes of these receptors was carried out in Cos-7 and CHO-K1 cell lines by using an electroporator.
(§3) The binding of the derivatives of the present invention with human 5HT1Da, 5HT1Db and 5HT1A receptors was studied according to the method described by P. Pauwels and C. Palmier (Neuropharmacology, 33, 67, 1994).
(§4) The incubation media for these binding measurements comprise 0.4 ml of cell membrane preparation, 0.05 ml of a tritiated ligand [[3H]-SCT (final concentration: 2 nM) for the 5HT1Da and 5HT1Db receptors and [3H]-80H-DPAT (final concentration: 1 nM) for the 5HT1A receptor] and 0.05 ml of the molecule to be tested (final concentrations from 0.1 nM to 1000 nM) or 10 μM (final concentration) of serotonin (5HT1Da and 5HT1Db) or 1 μM (final concentration) of spiroxatrin (5HT1A ).

human 5HT1Da receptor = human 5HT1Da receptor (Homo sapiens, UniProt P28221); test: Binding to cloned human 5HT1Da receptor; conditions: human cloned receptor; [3H] ligand 2 nM; read-out: Ki 5HT1Da
Description: as §1, §2, §3, §4

5-HT1B receptor = target: T2, 5-HT1B receptor (Didelphis virginiana, UniProt P35404); test: Agonist activity: inhibition of forskolin-stimulated cAMP formation mediated by a 5-HT1B receptor in OK kidney epithelial cell line; assay type: cell-based
T2 construct: mediated by a 5-HT1B receptor, in an OK kidney epithelial cell line; endogenous in cells; host or cells: OK kidney epithelial cell line
Description: STUDY OF THE AGONIST ACTIVITY WITH RESPECT TO THE 5-HT1B RECEPTORS
The measurements were carried out with respect to the inhibition of the formation of cAMP stimulated by forskolin, mediated by a 5-HT1B receptor, in an OK kidney epithelial cell line as described elsewhere (P. J. Pauwels and C. Palmier, Neuropharmacology, awaiting publication).

human 5HT1Db receptor [2] = target: T1, human 5HT1Db receptor; test: cell-based; conditions: human 5HT1Db; CHO-K1 cells; read-out: EC50 (Inhibition of the 5HT1Db cyclase stimulated by forskolin)
Description: as §1, §2
The inhibition of the formation of cyclic AMP (stimulated by forskolin) mediated by the human 5HT1Db receptor was studied in CHO-K1 cells transfected by the receptor according to the technique described previously for the 5HT1B receptor (P. Pauwels and C. Palmier, Neuropharmacology, 33, 67, 1994).

5-HT1A = target: T3, 5-HT1A (Rattus norvegicus, UniProt P19327); test: Affinity for 5-HT1A receptors (method of Peroutka); assay type: binding
T3 construct: from tissue; host or cells: rat frontal cortex (from the title of the cited method)
T3 sequence (P19327 1-422): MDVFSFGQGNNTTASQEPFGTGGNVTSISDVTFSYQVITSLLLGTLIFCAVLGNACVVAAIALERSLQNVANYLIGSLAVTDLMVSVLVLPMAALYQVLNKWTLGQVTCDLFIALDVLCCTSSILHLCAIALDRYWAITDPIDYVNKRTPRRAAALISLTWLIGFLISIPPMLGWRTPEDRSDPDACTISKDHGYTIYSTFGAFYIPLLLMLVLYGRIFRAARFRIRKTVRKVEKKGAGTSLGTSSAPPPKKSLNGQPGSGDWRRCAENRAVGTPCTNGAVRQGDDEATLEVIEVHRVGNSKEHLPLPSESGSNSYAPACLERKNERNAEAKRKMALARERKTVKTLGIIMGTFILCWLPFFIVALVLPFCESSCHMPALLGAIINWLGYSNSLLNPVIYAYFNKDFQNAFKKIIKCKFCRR
Description: The affinities of the various products which form part of this invention for 5HT1A and 5HT1B receptors were measured according to the techniques described in:
Peroutka S. J. Pharmacological differentiation and characterization of 5HT1A, 5HT1B and 5HT1C binding sites in rat frontal cortex. J. Neurochem., 45, 529-540, 1986.

5-HT1D receptors = test: Affinity for 5-HT1D receptors (3H-5HT binding, sheep caudate membranes); conditions: for Ratio 1A/1D (ratio of the IC50 values for the 5HT1A and 5HT1D receptors): selectivity 5-HT1D over 5-HT1A; for IC50: sheep caudate nuclei membranes, 3H-5HT, 25° C., 30 min
Description: STUDY OF THE AFFINITY FOR 5-HT1D RECEPTORS
This study is carried out according to the technique described by Pauwells et al. (Biochem. Pharmacol, 46, 535-538, 1993).
Preparation of the membranes
Sheep brains are removed in the local abattoir and transported in ice. The caudate nuclei are removed, weighed and homogenized with a Polytron for 20 sec (speed 6-7) in 20 volumes of Tris-HCl 50 mM, pH 7.7. The homogenate is centrifuged for 10 min at 48,000 g with an L5 50E centrifuge (Beckman).
The pellet, taken up in 20 volumes of Tris-HCl 50 mm, pH 7.7, is placed in a water bath at 37° C. for 10 min and then recentrifuged for 10 min at 48,000 g. The pellet then obtained is immediately frozen in fractions containing 0.5g of tissue.
The pellet is defrosted and homogenized with a Dounce in 80 volumes of Tris-HCl 50 mM, pH 7.7, containing 4 mM CaCl2, 10 μM of pargyline and 0.1% of ascorbic acid.
Affinity is produced at 25° C. by incubating for 30 min:
0.1 ml of buffer or 10 μM, as final concentration, of sumatriptan, in order to obtain the non-specific binding
0.1 ml of 3H-5HT (15 to 30 Ci:mM, New England Nuclear France).
The incubation is brought to an end by rapid filtration through GF/B filters and rinsing with 3 times 3 [illegible] ice-cold buffer, using a harvester manufactured by Brandel which makes it possible [illegible] to filter [illegible]samples. The filters are introduced into vials containing [illegible]ml of [illegible] [illegible] scintillant (Packard) and the radioactivity measured with a Tri-carb 4640 counter (Packard). The IC50 (concentration which inhibits the specific affinity by 50%) is determined graphically.

[3] = rat frontal cortex (Peroutka method), read-out: IC50 5-HT1A mean

T2 sequence (P35404 whole entry): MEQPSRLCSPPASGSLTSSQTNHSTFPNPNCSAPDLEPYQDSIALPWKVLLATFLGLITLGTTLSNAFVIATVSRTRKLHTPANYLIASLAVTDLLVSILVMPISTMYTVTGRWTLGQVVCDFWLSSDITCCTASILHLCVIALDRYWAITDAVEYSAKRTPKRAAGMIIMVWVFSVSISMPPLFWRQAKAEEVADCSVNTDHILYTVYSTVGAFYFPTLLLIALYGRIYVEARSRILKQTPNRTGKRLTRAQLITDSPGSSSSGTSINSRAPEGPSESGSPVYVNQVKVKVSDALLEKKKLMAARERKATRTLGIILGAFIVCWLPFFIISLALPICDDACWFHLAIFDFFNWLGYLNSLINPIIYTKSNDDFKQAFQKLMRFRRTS
T1 sequence (P28222 whole entry): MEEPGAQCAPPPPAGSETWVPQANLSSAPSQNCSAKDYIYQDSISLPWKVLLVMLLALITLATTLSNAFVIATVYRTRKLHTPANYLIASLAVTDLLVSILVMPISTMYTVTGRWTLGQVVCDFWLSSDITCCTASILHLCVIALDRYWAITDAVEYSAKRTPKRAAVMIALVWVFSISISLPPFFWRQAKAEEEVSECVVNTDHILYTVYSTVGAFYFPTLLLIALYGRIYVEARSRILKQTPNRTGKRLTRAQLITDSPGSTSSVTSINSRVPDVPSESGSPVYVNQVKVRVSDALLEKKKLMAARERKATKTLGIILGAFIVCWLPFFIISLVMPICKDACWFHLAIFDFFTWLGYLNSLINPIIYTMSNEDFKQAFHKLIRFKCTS
human 5HT1Da receptor, sequence (P28221 whole entry): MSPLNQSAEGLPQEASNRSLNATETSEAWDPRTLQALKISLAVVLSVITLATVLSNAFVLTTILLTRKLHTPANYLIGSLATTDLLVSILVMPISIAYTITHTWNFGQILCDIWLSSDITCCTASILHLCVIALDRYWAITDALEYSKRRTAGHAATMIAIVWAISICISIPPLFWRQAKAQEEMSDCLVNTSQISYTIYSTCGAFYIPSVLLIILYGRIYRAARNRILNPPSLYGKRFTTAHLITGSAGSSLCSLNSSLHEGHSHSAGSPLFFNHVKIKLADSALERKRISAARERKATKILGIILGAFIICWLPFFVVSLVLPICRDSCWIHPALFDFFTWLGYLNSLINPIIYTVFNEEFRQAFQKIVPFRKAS

| IC50 (5-HT1A; [3]) [nM] | Ratio 1A/1D (ratio of the IC50 values for the 5HT1A and 5HT1D receptors) (5-HT1D receptors) | IC50 (5-HT1D receptors) [nM] | SMILES | other results |
| --- | --- | --- | --- | --- |
| – | – | – | NCCc1c[nH]c2ccc(OCC(=O)N3CCN(c4ccc([N+](=O)[O-])cc4)CC3)cc12 [Example 1, 2-[3-(2-Aminoethyl)-1H-indol-5-yloxy]-1-[4-(4-nitrophenyl)piperazin-1-yl]ethanone hydrochloride] | Ki (human 5HT1Db receptor [1]): 1 nM; Ki (human 5HT1Da receptor): 0.5 nM; EC50 (5-HT1B receptor): 0.3 to 1.2 nM; EC50 (human 5HT1Db receptor [2]): 1.2 nM |
| – | – | – | NCCc1c[nH]c2ccc(OCC(=O)N3CCN(c4ccc(N)cc4)CC3)cc12 [Example 2, 2-[3-(2-Aminoethyl)-1H-indol-5-yloxy]-1-[4-(4-aminophenyl)piperazin-1-yl]ethanone hydrochloride] | EC50 (5-HT1B receptor): 0.3 to 1.2 nM |
| – | – | – | CC(=O)Nc1ccc(N2CCN(C(=O)COc3ccc4[nH]cc(CCN)c4c3)CC2)cc1 [Example 3, N-[4-(4-{2-[3-(2-Aminoethyl)-1H-indol-5-yloxy]acetyl}piperazin-1-yl)phenyl]acetamide hydrochloride] | EC50 (5-HT1B receptor): 0.3 to 1.2 nM |
| 75 | 75 | 1 | NCCc1c[nH]c2ccc(OCC(=O)N3CCN(c4ccc(NC(=O)c5ccccc5)cc4)CC3)cc12 [Example 4, N-[4-(4-{2-[3-(2-Aminoethyl)-1H-indol-5-yloxy]acetyl}piperazin-1-yl)phenyl]benzamide hydrochloride] | – |
| – | – | – | CS(=O)(=O)Nc1ccc(N2CCN(C(=O)COc3ccc4[nH]cc(CCN)c4c3)CC2)cc1 [Example 5, N-[4-(4-{2-[3-(2-Aminoethyl)-1H-indol-5-yloxy]acetyl}piperazin-1-yl)phenyl]methanesulfonamide hydrochloride] | Ki (human 5HT1Db receptor [1]): 3.2 nM; Ki (human 5HT1Da receptor): 0.7 nM; EC50 (human 5HT1Db receptor [2]): 6.5 nM |
| 79 | 18 | 4.3 | CS(=O)(=O)N(c1ccc(N2CCN(C(=O)COc3ccc4[nH]cc(CCN)c4c3)CC2)cc1)S(C)(=O)=O [Example 6, N-[4-(4-{2-[3-(2-Aminoethyl)-1H-indol-5-yloxy]acetyl}piperazin-1-yl)phenyl](methanesulfonyl)methanesulfonamide hydrochloride] | – |
| 44 | 28 | 1.6 | CCS(=O)(=O)Nc1ccc(N2CCN(C(=O)COc3ccc4[nH]cc(CCN)c4c3)CC2)cc1 [Example 7, N-[4-(4-{2-[3-(2-Aminoethyl)-1H-indol-5-yloxy]acetyl}piperazin-1-yl)phenyl]ethanesulfonamide hydrochloride] | – |
| 26 | 22 | 1.2 | NCCc1c[nH]c2ccc(OCC(=O)N3CCN(c4ccc(NS(=O)(=O)c5cccs5)cc4)CC3)cc12 [Example 8, Thiophene-2-{N-[4-(4-{2-[3-(2-aminoethyl)-1H-indol-5-yloxy]acetyl}piperazin-1-yl)phenyl]sulfonamide hydrochloride] | – |
| 38 | – | – | NCCc1c[nH]c2ccc(OCC(=O)N3CCN(c4ccc(N(S(=O)(=O)c5cccs5)S(=O)(=O)c5cccs5)cc4)CC3)cc12 [Example 9, N-[4-(4-{2-[3-(2-Aminoethyl)-1H-indol-5-yl-oxy]acetyl}piperazin-1-yl)phenyl](thiophene-2-sulfonyl)-thiophene-2-sulfonamide hydrochloride] | – |
| 20 | 20 | 1 | Cc1noc(C)c1S(=O)(=O)Nc1ccc(N2CCN(C(=O)COc3ccc4[nH]cc(CCN)c4c3)CC2)cc1 [Example 10, 3,5-Dimethylisoxazole-4-{N-[4-(4-{2-[3-(2-aminoethyl)-1H-indol-5-yloxy]acetyl}-piperazin-1-yl)phenyl]sulfonamide hydrochloride] | – |
| 105 | 44 | 2.4 | CCOC(=O)Nc1ccc(N2CCN(C(=O)COc3ccc4[nH]cc(CCN)c4c3)CC2)cc1 [Example 11, 2-[3-(2-Aminoethyl)-1H-indol-5-yloxy]-1-[4-(4-N-{ethoxycarbonyl}aminophenyl)piperazin-1-yl]-ethanone hydrochloride] | – |
| – | – | – | CS(=O)(=O)Nc1ccc(N2CCN(C(=O)CCCCCOc3ccc4[nH]cc(CCN)c4c3)CC2)cc1 [Example 59, N-[4-(4-{6-[3-(2-Aminoethyl)-1H-indol-5-yloxy]hexanoyl}piperazin-1-yl)phenyl]methane sulfonamide hydrochloride] | Ki (human 5HT1Db receptor [1]): 1.3 nM; Ki (human 5HT1Da receptor): 1.3 nM; EC50 (human 5HT1Db receptor [2]): 0.52 nM |
| – | – | – | NCCc1c[nH]c2ccc(O)cc12 [serotonin, reference compound] | blocking the formation of cAMP (in words) (5-HT1B receptor; OK kidney epithelial cell line, forskolin-stimulated): capable of effectively blocking the formation of cAMP |

| SMILES | IC50 (5-HT1A; [3]) [nM] | Ratio 1A/1D (ratio of the IC50 values for the 5HT1A and 5HT1D receptors) (5-HT1D receptors) | IC50 (5-HT1D receptors) [nM] | other results |
| --- | --- | --- | --- | --- |
| NCCc1c[nH]c2ccc(OCC(=O)N3CCN(c4ccccc4[N+](=O)[O-])CC3)cc12 [Example 14, 2-[3-(2-Aminoethyl)-1H-indol-5-yloxy]-1-[4-(2-nitrophenyl)piperazin-1-yl)ethanone hydrochloride] | – | 10 | 1 | IC50 (5-HT1A): 9.5 nM |
